Several values for one entry are separate records, joined by “and”; a condition that tells them apart may be missing. Identical values can stand only once. Like-named read-outs stand apart in the source and are kept apart here.
Key:
[1] = molecular target: T1, rat brain cholinesterase (total ChE) (Rattus norvegicus, UniProt P37136); experiment: Kinetics of irreversible cholinesterase inhibition (Kitz-Wilson); type: biochemical
T1 construct: rows headed: Ki (dissociation constant for EI); other: rat brain total ChE; mean of 3-4 experiments; k+2 (carbamylation rate constant); other: from ki; rate of carba
T1 sequence (P37136 32-614): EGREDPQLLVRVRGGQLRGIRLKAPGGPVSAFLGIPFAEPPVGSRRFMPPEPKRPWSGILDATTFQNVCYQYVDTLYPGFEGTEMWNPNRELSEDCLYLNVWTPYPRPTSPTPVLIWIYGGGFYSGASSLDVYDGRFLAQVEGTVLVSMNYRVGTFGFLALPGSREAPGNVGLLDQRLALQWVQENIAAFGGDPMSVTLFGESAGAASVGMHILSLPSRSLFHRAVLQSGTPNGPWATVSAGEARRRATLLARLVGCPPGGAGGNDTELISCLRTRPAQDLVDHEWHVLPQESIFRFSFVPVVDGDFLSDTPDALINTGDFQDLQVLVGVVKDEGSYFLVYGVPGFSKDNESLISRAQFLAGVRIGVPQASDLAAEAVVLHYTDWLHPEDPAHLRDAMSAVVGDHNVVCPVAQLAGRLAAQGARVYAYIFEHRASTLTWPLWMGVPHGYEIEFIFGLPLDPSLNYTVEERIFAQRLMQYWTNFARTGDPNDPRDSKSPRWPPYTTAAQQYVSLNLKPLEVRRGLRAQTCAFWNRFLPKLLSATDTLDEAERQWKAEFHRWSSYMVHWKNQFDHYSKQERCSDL
Description: To determine kinetic constants of irreversible inhibition, cholinesterase from rat brain homogenates was incubated with the multifunctional compounds of the invention for designed time intervals in phosphate buffer pH 7.4.
The residual cholinesterase activity was immediately measured with the Ellman's colorimetric method after addition of 5,5′-dithiobis(2-nitrobenzoic) acid and 1 mM acetylthiocholine iodide. The inhibition kinetics were assessed according to Kitz-Wilson equation:
[formula] wherein: E represents the enzyme; I represents the intact carbamate (inhibitor); EI is the initial reversible enzyme complex; E* is the carbamylated enzyme; Ki represents the dissociation constant for EI; k+2 is the carbamylation rate constant and k+3 is the decarbamylation rate constant; kapp is the pseudo-first-order inhibition rate constant; ki, the second-order rate inhibition constant, is approximated by k+2/Ki. Under experimental condition [I]>>[E0].
According to equation (2), the logarithm of the ratio of the residual cholinesterase activity (E) and the initial cholinesterase activity (E0) is plotted against the time of incubation. The slopes of the lines representing kapp were determined by linear regression.
The slopes of the lines represent the pseudo-first-order inhibition rate constant (kapp) determined from linear regression analysis. […] The carbamylation rate constant (k+2) was obtained from the y-intercept, and the dissociation constant ([…] was obtained from the slope of the line multiplied by k+2 as described in Materials and Methods.
From these lines, the values of kapp were calculated based on Equation (2) of the Kitz-Wilson equations (see Material and Methods). […] The carbamylation rate constant k+2 is a measure of inactivation of ChE.

[2] = molecular target: T2, butyrylcholinesterase (BuChE) (Rattus norvegicus, UniProt Q9JKC1); experiment: Butyrylcholinesterase inhibition in rat brain homogenates (Ellman); type: biochemical; conditions: mean SEM, n=3 in triplicates
T2 construct: total cholinesterase (ChE) and butyrylcholinesterase (BuChE) activities in rat brain homogenates; from tissue; host or cells: brain homogenate (10% w/v) of adult Wistar rats
T2 sequence (Q9JKC1 24-597): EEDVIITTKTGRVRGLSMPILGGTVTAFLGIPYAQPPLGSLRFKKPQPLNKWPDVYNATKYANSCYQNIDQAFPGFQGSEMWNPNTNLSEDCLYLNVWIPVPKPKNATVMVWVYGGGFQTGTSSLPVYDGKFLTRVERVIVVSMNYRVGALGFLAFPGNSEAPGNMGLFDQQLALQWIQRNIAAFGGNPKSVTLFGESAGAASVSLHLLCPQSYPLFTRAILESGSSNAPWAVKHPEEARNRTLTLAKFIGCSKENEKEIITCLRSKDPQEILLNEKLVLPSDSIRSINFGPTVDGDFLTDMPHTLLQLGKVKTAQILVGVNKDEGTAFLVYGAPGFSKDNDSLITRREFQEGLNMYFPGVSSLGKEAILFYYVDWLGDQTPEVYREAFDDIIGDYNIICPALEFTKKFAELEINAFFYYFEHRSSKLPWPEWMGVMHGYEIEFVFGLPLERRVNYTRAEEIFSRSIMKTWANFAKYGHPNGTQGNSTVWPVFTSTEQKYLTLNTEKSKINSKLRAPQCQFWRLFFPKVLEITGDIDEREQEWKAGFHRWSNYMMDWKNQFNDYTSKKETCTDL
Description: (§1) Cholinesterase activity was determined in rat brain homogenate following incubation with varying concentrations of the multifunctional pro-chelators of the invention (also referred to herein as “carbamates”).
(§2) Ellman's colorimetric method was adapted for determination of total cholinesterase (ChE) and butyrylcholinesterase (BuChE) activities in rat brain homogenates. Brain tissue from adult Wistar rats was homogenized at 2% w/v (or 10% w/v, for BuChE) in 0.1 M sodium phosphate buffer, pH 7.4, with added NaCl 58.5 g/l and Triton X-100 0.05% v/v. Aliquots of homogenate (20 μl) were incubated with the test compounds for designed time intervals in phosphate buffer pH 7.4, before addition of 5,5′-dithiobis(2-nitrobenzoic) acid and either 1 mM acetylthiocholine iodide or 10 mM butyrylthiocholine iodide (Sigma, St. Louis, Mo.). The reaction was run at 37° C. in a final volume of […] in 96-well microplates and was followed at 412 nm for 5 min with a plate reader. In every experiment, cholinesterase-independent (nonspecific) substrate hydrolysis was determined by including one experimental group treated with tacrine 30 μM. Appropriate tissue and reagent blanks were also included. Reaction velocities were determined in three or four replicates per condition; these were averaged and expressed as percent activity relative to control (solvent), after subtracting the rate of nonspecific hydrolysis.
(§3) The results are the mean SEM, n=3 in triplicates. ND—not determined.

rat brain MAO-A = molecular target: T3, rat brain MAO-A (Rattus norvegicus, UniProt P21396); experiment: biochemical; conditions: IC50 MAO-A, rat brain homogenate in vitro; mean SEM, n=3 in triplicates
T3 construct: from tissue; host or cells: rat brain homogenate
T3 sequence (P21396 1-526): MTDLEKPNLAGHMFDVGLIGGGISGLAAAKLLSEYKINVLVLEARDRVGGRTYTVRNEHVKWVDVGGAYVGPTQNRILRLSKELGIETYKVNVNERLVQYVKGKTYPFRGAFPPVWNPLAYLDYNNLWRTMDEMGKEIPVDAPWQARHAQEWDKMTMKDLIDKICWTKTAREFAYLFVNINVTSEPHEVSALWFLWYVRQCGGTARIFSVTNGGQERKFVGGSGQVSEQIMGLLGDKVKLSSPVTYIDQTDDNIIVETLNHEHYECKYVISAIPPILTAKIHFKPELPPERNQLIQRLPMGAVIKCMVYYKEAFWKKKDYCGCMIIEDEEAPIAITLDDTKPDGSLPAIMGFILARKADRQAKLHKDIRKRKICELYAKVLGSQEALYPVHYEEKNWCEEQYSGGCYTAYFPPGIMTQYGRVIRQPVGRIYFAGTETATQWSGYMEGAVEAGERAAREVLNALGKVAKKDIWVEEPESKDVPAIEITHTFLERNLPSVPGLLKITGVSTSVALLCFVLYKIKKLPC
Description: (§4) Rats were decapitated and the brains were quickly taken into a pre-weighted ice-cold sucrose buffer (10 mM Tris-HCl buffer, pH 7.4, containing 0.32 M sucrose), and their weights were measured. The brains were homogenized at 0-4° C. in 0.32 M sucrose (one part tissue to 20 parts sucrose) in a Teflon glass homogenizer. The resultant homogenates were used to determine MAO activity. Protein concentration was determined with Bradford reagent at 595 nm, using bovine serum albumin as a standard.
(§5) The activity of MAO-A and MAO-B were determined by the adapted method of Tipton & Youdim (Tipton et al. 1983). Briefly, the multifunctional compound tested was added to a suitable dilution of the enzyme preparation (70 μg MAO-B and 150 μg MAO-A) in 0.05 M phosphate buffer (pH 7.4). The mixture was incubated together with 0.05 μM 1-deprenyl, a specific inhibitor of MAO-B (for determination of MAO-A activity in the presence of the test compound) or 0.05 μM clorgyline a specific inhibitor of MAO-A (for determination of MAO-B activity). […] The reaction was stopped with 2M ice-cold citric acid, and the radioactive metabolites (5-hydroxytryptaldehyde and phenylacetaldehyde) were extracted by addition of 2 ml of ethylacetate/toluene (1:1 vol/vol). The radioactivity contained in the organic phase was determined by liquid-scintillation counting in cpm units.
(§6) MAO-A and MAO-B activities were determined in rat brain homogenate in vitro following incubation with varying concentrations of the test compounds.
(§7) The results are the mean SEM, n=3 in triplicates.

rat brain MAO-B = molecular target: T4, rat brain MAO-B (Rattus norvegicus, UniProt P19643); experiment: biochemical; conditions: IC50 MAO-B, rat brain homogenate in vitro; mean SEM, n=3 in triplicates
T4 construct: from tissue; host or cells: rat brain homogenate
T4 sequence (P19643 1-520): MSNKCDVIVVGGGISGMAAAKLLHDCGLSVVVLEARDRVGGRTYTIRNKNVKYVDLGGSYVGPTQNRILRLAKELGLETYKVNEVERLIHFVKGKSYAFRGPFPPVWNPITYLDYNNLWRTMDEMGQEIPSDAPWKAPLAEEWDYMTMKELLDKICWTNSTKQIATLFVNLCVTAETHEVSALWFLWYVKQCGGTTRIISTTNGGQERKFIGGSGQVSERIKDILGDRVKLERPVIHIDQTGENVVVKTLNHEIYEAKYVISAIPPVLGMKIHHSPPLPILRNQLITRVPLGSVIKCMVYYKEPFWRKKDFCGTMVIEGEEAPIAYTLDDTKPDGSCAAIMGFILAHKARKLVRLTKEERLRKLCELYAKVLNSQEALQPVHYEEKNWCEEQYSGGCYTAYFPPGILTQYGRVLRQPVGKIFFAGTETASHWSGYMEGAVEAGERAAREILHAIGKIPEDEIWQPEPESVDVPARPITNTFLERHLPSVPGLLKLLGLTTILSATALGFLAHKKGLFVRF
Description: as §4, §5, §6, §7

[3] = molecular target: T5, total cholinesterase (ChE) (Rattus norvegicus, UniProt P37136); experiment: Total cholinesterase inhibition in rat brain homogenates (Ellman); type: biochemical; conditions: read-out: percent inhibition Total ChE
T5 sequence (P37136 32-614): T1 sequence (P37136 32-614)
Description: as §1, §2, §3

[4] = tested on: rat brain cholinesterase (total ChE); conditions: cited from earlier work

| Compound | potency in inhibiting ChE relative to rivastigmine ([1]; from ki) | kinact ([1]; pH 7.4, read-out: k+2 (carbamylation rate constant)) [s⁻¹] | kinact/KI ([1]; pH 7.4, read-out: ki (second-order rate inhibition constant, approximated by k+2/Ki)) [M⁻¹ s⁻¹] | IC50 [2] [nM] | IC50 (rat brain MAO-A) | IC50 (rat brain MAO-B) [nM] | inhibition at 1 µM [3] [%] | k+2 (carbamylation rate constant) ([4]; Data from ref.) | ki (second-order rate inhibition constant) ([4]; Data from ref.) | k+2 (carbamylation rate constant) ([4]; Data from ref., listed as rivastigmine) [min⁻¹] | Ki ([4]; rivastigmine, data from ref., read-out: Ki, affinity to total ChE) [nM] |
| --- | --- | --- | --- | --- | --- | --- | --- | --- | --- | --- | --- |
| C#CCN(C)Cc1ccc(OC(=O)N2CCCCC2)c2ncccc12 [Compound 6, 5-((methyl(propargyl)amino)methyl)quinolin-8-yl piperidine-1-carboxylate] | as potent | 0.00117 | 77.3 | 45700 ± 5940 | 4.7 to 20 nM and 4.7 nM | 1860 |  |  |  |  |  |
| CCN(C)C(=O)Oc1cccc([C@H](C)N(C)C)c1 [Rivastigmine, (S)-N-ethyl-N-methyl-3-[1-(dimethylamino)ethyl]-phenyl carbamate] |  |  |  |  |  |  | 62 | 0.25^b min^−1 | 4.54 × 10^3b M^−1 min^−1 | 0.25 | 55000 |
